{"source": "paper PMC8909594", "about": "“Direct Interaction of Mitochondrial Cytochrome c Oxidase with Thyroid Hormones: Evidence for Two Binding Sites” (Cells, 2022)", "key": {"[1]": {"target": "solubilized CcO from mitochondria", "conditions": "read-out: Kc (dissociation constant for DM), cited from earlier work"}, "[2]": {"target": "T1, solubilized cytochrome c oxidase (CcO) from bovine heart mitochondria (Bos taurus, UniProt P00396+P68530)", "T1 construct": "Cytochrome c oxidase (CcO) was purified from heart mitochondria of Bos taurus; from tissue; host or cells: bovine heart mitochondria", "test": "Oxidase activity of solubilized CcO, oxygen consumption (Clark-type electrode)", "type": "biochemical", "conditions": "for Kd: read-out: Kc, dissociation constant of the DM-CcO complex", "source_text": "Preparations. Cytochrome c oxidase (CcO) was purified from heart mitochondria of Bos taurus. […] CcO was isolated according to a modified method of Fowler et al. [21] described previously [22]."}, "[3]": {"system": "T2, cytochrome c oxidase (CcO)", "T2 construct": "Cytochrome c oxidase (CcO) was purified from heart mitochondria of Bos taurus; from tissue; host or cells: bovine heart mitochondria", "test": "Peroxidase activity of CcO (ferrocyanide peroxidation)", "type": "biochemical, Bos taurus", "conditions": "for rate of peroxidase reaction: 0.5 mM hormone, control 0.19 e−/s, error about 10%", "experimental": "To obtain a redox buffer with Em ≈ 420 mV, equal amounts of ferri- and ferrocyanide were mixed. To facilitate the interaction of ferrocyanide with CcO, 0.2 μM cytochrome c was present.\nPeroxidation of ferrocyanide (0.2 mM) was monitored in the presence of 0.6 μM CcO. […] Trace 1, black = control; trace 2, red = the experiment in the presence of 1 mM T4; trace 3, blue = 1 mM T4 added in the course of the experiment, as indicated."}, "mitochondrial CcO": {"system": "mitochondrial CcO", "set-up": "method as in PMID 8013649", "conditions": "0.2 μM enzyme; cited from earlier work"}, "CcO in proteoliposomes": {"system": "T3, CcO in proteoliposomes", "T3 construct": "Cytochrome c oxidase (CcO) was purified from heart mitochondria of Bos taurus; from tissue; host or cells: bovine heart mitochondria", "test": "Ferrocytochrome c oxidation by CcO in proteoliposomes", "type": "biochemical, Bos taurus", "experimental": "CcO reconstruction into phospholipid vesicles.\nCytochrome c was reduced beforehand by dithionite.\nFigure 2 Inhibitory effect of thyroid hormones on the oxidase activity of the membrane-incorporated CcO. […] Proteoliposomes were added to the experimental medium up to 26 nM CcO. The oxidase reaction was initiated by addition of the respiratory substrate. Other details are as in Figure 1B,D. (D) T3-induced inhibition of ferrocytochrome c oxidation by CcO in proteoliposomes. […] Other conditions are as in panel (A) except that proteoliposomes were added to the medium up to 3.25 nM CcO and pre-incubated for 30 min before adding the respiratory substrate. […] Mitochondria were suspended in the experimental medium up to 0.8 mg of protein/mL. Other details are as in Figure 1B,D. (F) Inhibitory effect of T4 on CcO oxidase activity in SMP obtained from bovine heart mitochondria. The conditions were essentially as in panel (E) except that the CcO concentration was 20 nM."}, "[4]": {"system": "cytochrome c oxidase (electron transfer from heme a to heme a3)", "test": "Level and kinetics of heme a / heme a3 reduction in CcO", "conditions": "pH 8.0, 5 μM RuAm, 5 mM ascorbate", "procedure": "The kinetics of spectral changes were monitored on spectrophotometer SLM Aminco DW-2000 (SLM Instruments, Urbana, IL, USA) in dual-wavelength mode.\nThe oxidase reaction was carried out using ascorbate (as an electron source) in combination with the redox mediators RuAm and TMPD. The reduction of CcO was monitored spectrophotometrically.\nThe total reduction level of hemes a and a3 was registered. […] The other conditions were as in panel (A) except that 0.1 mM TMPD was used instead of RuAm."}, "[5]": {"target": "mitochondrial cytochrome c oxidase (CcO) (Bos taurus, UniProt P00426)", "test": "Superoxide generation by CcO in excess H2O2 (WST-1 reduction)", "procedure": "The reaction of superoxide generation catalyzed by CcO in the presence of excess hydrogen peroxide was assayed in the basic medium, pH 7.6 by the classic method [27], monitoring the superoxide dismutase-sensitive reduction of tetrazolium salts to formazan.\nAddition of 0.4 µM T4 is indicated. CcO was added up to 0.5 μM to the experimental medium, supplemented with 0.1 mM WST-1. The reaction was initiated by addition of 4 mM H2O2 (indicated by the arrow). […] Conditions of the measurements are as in panel (A)."}, "[6]": {"system": "cytochrome c oxidase (CcO)", "test": "Catalase activity of CcO (oxygen release from H2O2)", "conditions": "higher hormone concentration (curve 4, 1 mM)", "procedure": "The catalase activity of CcO was detected by a Clark-type electrode in the presence of excess hydrogen peroxide, in 30 mM potassium-phosphate buffer, pH 7.1 supplemented with 2 mM EDTA and 0.05% DM, as described in [26]."}, "[7]": {"target": "CcO incorporated into azolectin vesicles (proteoliposomes) (Bos taurus, UniProt P00396+P68530)", "test": "Oxidase activity of CcO in proteoliposomes, oxygen consumption", "procedure": "First, the effect of thyroid hormones on CcO incorporated into azolectin vesicles was studied. The activity was assayed in the same way as in solution except for the absence of detergent and presence of protonophore in the medium (see Section 2)."}, "[8]": {"target": "T4, CcO in SMP obtained from bovine heart mitochondria (Bos taurus, UniProt P00396+P68530)", "T4 construct": "Then, CcO in the native mitochondrial membrane was investigated; from tissue; host or cells: bovine heart submitochondrial particles", "test": "CcO oxidase activity in bovine heart submitochondrial particles (SMP)", "type": "biochemical", "experimental": "Preparation of bovine heart submitochondrial particles (SMP). The heavy fraction of bovine heart mitochondria was suspended in 40 mL of 0.3 M sucrose supplemented with 5 mM MgSO4, 1 mM succinate, 1 mM ATP and 10 mM Hepes, pH 8.0. […] Mitochondrial debris was removed by centrifugation for 12 min at 15,000 rpm (Beckman JA-20, Brea, CA, USA). SMP were precipitated from supernatant at 100,000 g for 1 h, washed by 0.3 M sucrose with 10 mM Hepes, pH 7.5 and precipitated as previously described. The final precipitate was suspended in a small volume of the same buffer and frozen. To determine the CcO concentration in the sample, a small amount of SMP was solubilized in 50 mM Hepes/Tris buffer, pH 7.6 containing 1% DM."}, "[9]": {"system": "T5, xanthine oxidase from bovine milk", "T5 construct": "xanthine oxidase from bovine milk; purchased Sigma-Aldrich; host or cells: bovine milk", "test": "Superoxide formation by xanthine oxidase oxidizing hypoxanthine (test for superoxide dismutase activity)", "type": "biochemical", "conditions": "hypoxanthine 50 μM, XOx 0.015 units/mL; 500 μM T4; SOD 20 μg/mL", "text": "The conditions were adjusted so that the rate of WST reduction was approximately the same as in panel (A)."}, "[10]": {"system": "T6, oxidized cytochrome c oxidase (CcO)", "T6 construct": "Cytochrome c oxidase (CcO) was purified from heart mitochondria of Bos taurus; from tissue; host or cells: bovine heart mitochondria", "test": "Formation of CcO oxoferryl intermediates FI-607 and FII-580 with H2O2 (titration, stopped-flow)", "type": "biochemical, Bos taurus", "experimental": "Stopped-flow experiments were performed using a stopped-flow spectrophotometer (Applied Photophysics SX-20, Leatherhead, UK) operated in the diode array mode, using a 20-μL cell with a 1-cm optical pathway.\nOxoferryl intermediates’ formation was monitored using stopped-flow techniques. CcO in the basic medium, pH 8.1 supplemented with 0.1% DM, 0.05 mM ferricyanide and when necessary, T4 was rapidly mixed with an equal volume of the same buffer containing H2O2.\nWe carried out such a titration to evaluate the effects of thyroid hormones on the equilibrium of oxoferryl intermediates.\nFigure 6 Effect of T4 on the formation of CcO oxoferryl intermediates during the reaction with H2O2. The reaction was followed using a diode array spectrophotometer. […] (A, B) Kinetics of the oxoferryl intermediates’ formation. […] (A) Control; (B) CcO was pre-incubated with 0.5 mM T4 until mixing."}}, "note": "“And” between values parts separate entries of the source, which are not always exact repeats. Identical values can stand only once. “Also recorded” adds a separate entry of the source. Like-named read-outs stand apart in the source and are kept apart here."}
{"compound": "CCCCCCCCCCCCO[C@@H]1O[C@H](CO)[C@@H](O[C@H]2O[C@H](CO)[C@@H](O)[C@H](O)[C@H]2O)[C@H](O)[C@H]1O", "note": "[DM, dodecyl-maltoside]", "values": [{"measurement": "Kd", "setting": "[1]; from study of CcO inhibition by Triton X-100", "result": 1200, "unit": "µM"}, {"measurement": "Kd", "setting": "[1]; from study of CcO inhibition by estradiol", "result": 1470, "unit": "µM"}, {"measurement": "Kd", "setting": "[1]; from study of CcO inhibition by testosterone", "result": 1300, "unit": "µM"}, {"measurement": "Kd", "setting": "[2]; from competition with T3 (T3=0)", "result": "~1120", "unit": "µM"}, {"measurement": "Kd", "setting": "[2]; from competition with T4 (T4=0)", "result": "~1100", "unit": "µM"}]}
{"compound": "N[C@@H](Cc1cc(I)c(Oc2ccc(O)cc2)c(I)c1)C(=O)O", "note": "[T2, 3,5-diiodo-thyronine]", "values": [{"measurement": "rate of peroxidase reaction", "setting": "[3]", "result": 0.21, "unit": "e^−/s"}, {"measurement": "concentration from which effects of T2 start", "setting": "mitochondrial CcO", "result": "10^−7 M"}]}
{"compound": "N[C@@H](Cc1cc(I)c(Oc2ccc(O)c(I)c2)c(I)c1)C(=O)O", "note": "[T3, L-3,5,3′-triiodide-thyronine]", "values": [{"measurement": "time of enzyme activity after which inhibition develops", "setting": "CcO in proteoliposomes; 0.5 mM T3 (~450 turnovers)", "result": 10, "unit": "s"}, {"measurement": "decrease in the activity compared to the control", "setting": "CcO in proteoliposomes; 0.5 mM T3, pre-incubation 30 min, 3.25 nM CcO", "result": "approximately twofold decrease"}, {"measurement": "increase of steady-state level of heme a reduction over control", "setting": "[4]; 1 mM hormone", "result": "~ 75%"}, {"measurement": "increase of steady-state level of heme a reduction over control", "setting": "[4]; 2 mM hormone", "result": "~ 115%"}]}
{"compound": "N[C@@H](Cc1cc(I)c(Oc2cc(I)c(O)c(I)c2)c(I)c1)C(=O)O", "note": "[T4, L-3,5,3′,5′tetraiodo-thyronine]", "values": [{"measurement": "rate of peroxidase reaction", "setting": "[3]", "result": 0.22, "unit": "e^−/s"}, {"measurement": "effect on the rate of ferrocyanide peroxidation", "setting": "[3]; 1 mM T4, 0.6 μM CcO, 4 mM H2O2", "result": "does not noticeably change; also recorded: complete resistance"}, {"measurement": "Ki", "setting": "[5]", "result": 0.3, "unit": "µM"}, {"measurement": "drop of the rate of WST-1 reduction (superoxide production)", "setting": "[5]; 0.4 μM T4", "result": "drops threefold"}, {"measurement": "suppression of catalase activity", "setting": "[6]", "result": "10–20%"}, {"measurement": "Ki", "setting": "[7]", "result": 310, "unit": "µM"}, {"measurement": "extent of inhibition", "setting": "[8]", "result": "complete inhibition"}, {"measurement": "Ki", "setting": "[8]; 20 nM CcO", "result": "2200 ± 200", "unit": "µM"}, {"measurement": "effect on the rate of dye (WST) reduction", "setting": "[9]", "result": "does not affect the rate of dye reduction"}, {"measurement": "decrease of the rate of oxygen consumption", "setting": "[2]; […] T4, 20 nM CcO", "result": "approximately two times"}, {"measurement": "extent of inhibition of enzyme activity", "setting": "[2]; lowest tested DM concentrations (0.02% and 0.05%)", "result": "70–80%"}, {"measurement": "Ki", "setting": "[2]; oxygen consumption, pH 7.6, 25 °C, from linear dependence of Ki(app) on [DM] 0.4–10 mM, DM=0, read-out: true inhibition constant Ki (in the absence of DM)", "result": "~100 µM and 100 µM"}, {"measurement": "Ki", "setting": "[2]; solubilized enzyme, Figure 1C,E, read-out: Ki", "result": "~100", "unit": "µM"}, {"measurement": "deviation of FI-607 (lower) and FII-580 (higher) concentration from control", "setting": "[10]; 0.5 mM T4, 15 s after mixing", "result": "about 10%"}, {"measurement": "acceleration of formation of FII-580 (form 580)", "setting": "[10]; 0.5 mM hormone", "result": "23% and 20–25%"}, {"measurement": "decrease in the quasi-stationary concentration ratio [FI-607]/[FII-580] vs control", "setting": "[10]; 0.5 mM hormone, titration of oxidized CcO with peroxide", "result": "15–25%"}, {"measurement": "increase of steady-state level of heme a reduction over control", "setting": "[4]; 1 mM hormone", "result": "~ 50%"}]}
{"compound": "superoxide dismutase: superoxide dismutase from bovine erythrocytes, control blocking WST reduction", "values": [{"measurement": "effect on the rate of dye (WST) reduction", "setting": "[9]", "result": "completely blocked"}]}
